{"source": "ChEMBL document CHEMBL5725990", "about": "“Inhibitors of Bruton's tyrosine kinase” (2017)", "target": "Tyrosine-protein kinase BTK (Homo sapiens, UniProt Q06187)", "sequence (Q06187 whole entry)": "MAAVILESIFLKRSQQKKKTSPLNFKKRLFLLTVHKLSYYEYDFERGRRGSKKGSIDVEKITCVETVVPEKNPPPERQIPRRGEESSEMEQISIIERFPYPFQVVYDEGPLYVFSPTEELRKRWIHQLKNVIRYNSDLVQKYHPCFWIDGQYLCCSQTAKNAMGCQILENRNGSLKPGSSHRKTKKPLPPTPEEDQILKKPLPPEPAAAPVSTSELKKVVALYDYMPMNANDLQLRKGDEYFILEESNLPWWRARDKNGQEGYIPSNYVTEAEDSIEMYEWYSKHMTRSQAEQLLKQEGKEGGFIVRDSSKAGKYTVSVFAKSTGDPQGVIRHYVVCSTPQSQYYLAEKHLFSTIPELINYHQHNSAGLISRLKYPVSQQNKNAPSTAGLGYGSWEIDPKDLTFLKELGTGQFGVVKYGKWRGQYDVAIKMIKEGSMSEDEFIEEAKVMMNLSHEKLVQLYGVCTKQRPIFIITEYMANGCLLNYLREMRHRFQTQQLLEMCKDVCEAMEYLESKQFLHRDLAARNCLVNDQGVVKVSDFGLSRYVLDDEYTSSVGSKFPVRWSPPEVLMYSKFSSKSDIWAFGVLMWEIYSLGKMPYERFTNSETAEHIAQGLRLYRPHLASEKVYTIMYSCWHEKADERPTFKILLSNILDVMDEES", "experiment": "Btk In Vitro Inhibitory Assay: Human Btk kinase (Genbank accession # NP_000052) was purified from insect cells as a full-length construct containing a N-terminal 6×-His tag. Btk kinase activity was determined using a radiometric filter binding assay. Measurements are performed in a low μL reaction volume 384-well assay plates. BTK enzyme (8 nM final in reaction), inhibitor (at requested doses), and 0.2 mg/mL peptide substrate (Poly-Glu-Tyr, 4:1 ratio) are incubated in a reaction buffer composed of 20 mM Hepes (pH 7.5), 10 mM MgCl2, 1 mM EGTA, 0.02% Brij35, 0.02 mg/ml BSA, 0.1 mM Na3VO4, 2 mM DTT, 1% DMSO for 15 min. followed by addition of 1 μM ATP to start the assay. Kinase reactions are carried out for 120 min. at room temperature. The reaction was stopped by spotting of reaction sample onto P81 cationic exchange paper (Whatman). Unbound phosphate was removed by extensive washing of filters in 0.75% Phosphoric acid."}
{"smiles": "NC(=O)c1nnc(N2CCC[C@@H](NC(=O)c3ccc4nccn4c3)C2)nc1Nc1ccc(C(=O)N2CCOCC2)cc1", "values": [{"measurement": "IC50", "value": "< 10", "unit": "nM"}]}
{"smiles": "NC(=O)c1ncc(N2CCC[C@@H](N3CCN(c4cccc(Cl)c4)C3=O)C2)nc1Nc1ccc(C2CCN(C3CCCC3)CC2)cc1", "values": [{"measurement": "IC50", "value": "< 10", "unit": "nM"}]}
